Assay results from PubChem BioAssay AID260 (DTP/NCI, 2004).
Values joined by “and” are separate entries in the source; they are usually repeats but may differ in a detail not shown here. Equal values may be shown once. Inconclusive results and toxic doses are left out. How the source made its calls: active means survival T/C of 150% or more; inactive means T/C below 125% in these data.

Test system: CD2F1 mice, intracerebral L1210 leukemia, survival T/C
Experiment: NCI In Vivo Anticancer Drug Screen. Data for tumor model L1210 Leukemia (intracerebral) in CD2F1 (CDF1) mice
Conditions: higher = longer survival
Method: The antitumor activity of compounds was measured in mice bearing transplantable tumors. Survival or tumor size were measured and the results are expressed as the measurement made in the treated group (T) divided by the measurement made in the vehicle treated control group (C). The tumor model used in this assay is L1210 Leukemia (intracerebral) in CD2F1 (CDF1) mice

[1] = endpoint: mean survival time, dose: 20.0 mg/kg/injection, schedule: Q01DX007 (ip), vehicle: DMSO
[2] = endpoint: mean survival time, dose: 40.0 mg/kg/injection, schedule: Q01DX007 (ip), vehicle: DMSO
[3] = endpoint: mean survival time, dose: 80.0 mg/kg/injection, schedule: Q01DX007 (ip), vehicle: DMSO
[4] = endpoint: median survival time, dose: 16.0 mg/kg/injection, schedule: Q01DX005 (ip), vehicle: saline with Tween-80
[5] = endpoint: median survival time, dose: 32.0 mg/kg/injection, schedule: Q01DX005 (ip), vehicle: saline with Tween-80
[6] = endpoint: median survival time, dose: 64.0 mg/kg/injection, schedule: Q01DX005 (ip), vehicle: saline with Tween-80
[7] = endpoint: median survival time, dose: 128.0 mg/kg/injection, schedule: Q01DX005 (ip), vehicle: saline with Tween-80
[8] = endpoint: median survival time, dose: 32.0 mg/kg/injection, schedule: Q01DX005 (ip), vehicle: saline

Measured: T/C

Nc1nc(=S)c2ncn(C3CC(O)C(CO)O3)c2[nH]1 (stereo not drawn)
inactive: endpoint: mean survival time, dose: 2.5 mg/kg/injection, schedule: Q01DX001 (ip), vehicle: steriod suspending solution 114 % of control | endpoint: mean survival time, dose: 10.0 mg/kg/injection, schedule: Q01DX001 (ip), vehicle: steriod suspending solution 118 % of control | endpoint: mean survival time, dose: 20.0 mg/kg/injection, schedule: Q01DX001 (ip), vehicle: steriod suspending solution 120 % of control

S=P(N1CC1)(N1CC1)N1CC1
active: endpoint: mean survival time, dose: 4.0 mg/kg/injection, schedule: Q01DX009 (ip), vehicle: saline 158 % of control and 162 % of control and 168 % of control
inactive: endpoint: mean survival time, dose: 0.25 mg/kg/injection, schedule: Q01DX009 (ip), vehicle: saline 100 % of control and 104 % of control and 112 % of control | endpoint: mean survival time, dose: 0.5 mg/kg/injection, schedule: Q01DX009 (ip), vehicle: saline 102 % of control and 106 % of control (2×) | endpoint: mean survival time, dose: 1.0 mg/kg/injection, schedule: Q01DX009 (ip), vehicle: saline 104 % of control and 106 % of control and 114 % of control | endpoint: mean survival time, dose: 2.0 mg/kg/injection, schedule: Q01DX009 (ip), vehicle: saline 124 % of control | endpoint: mean survival time, dose: 8.0 mg/kg/injection, schedule: Q01DX009 (ip), vehicle: saline 86 % of control

O=S1(=O)CS(=O)(=O)OCCO1
active: endpoint: median survival time, dose: 12.5 mg/kg/injection, schedule: Q01DX009 (ip), vehicle: Klucel (hydroxypropylcellulose) (HPC) 170 % of control | endpoint: median survival time, dose: 25.0 mg/kg/injection, schedule: Q01DX009 (ip), vehicle: Klucel (hydroxypropylcellulose) (HPC) 182 % of control | endpoint: median survival time, dose: 50.0 mg/kg/injection, schedule: Q01DX009 (ip), vehicle: Klucel (hydroxypropylcellulose) (HPC) 200 % of control
inactive: endpoint: median survival time, dose: 3.13 mg/kg/injection, schedule: Q01DX009 (ip), vehicle: Klucel (hydroxypropylcellulose) (HPC) 122 % of control

O=P1(NCCCl)OCCCN1CCCl (stereo not drawn)
inactive: endpoint: median survival time, dose: 40.0 mg/kg/injection, schedule: Q01DX001 (ip), vehicle: saline 97 % of control | endpoint: median survival time, dose: 80.0 mg/kg/injection, schedule: Q01DX001 (ip), vehicle: saline 102 % of control | endpoint: median survival time, dose: 160.0 mg/kg/injection, schedule: Q01DX001 (ip), vehicle: saline 105 % of control | endpoint: median survival time, dose: 320.0 mg/kg/injection, schedule: Q01DX001 (ip), vehicle: saline 113 % of control

Nc1ccn([C@@H]2C=C(CO)[C@@H](O)[C@H]2O)c(=O)n1
inactive: endpoint: median survival time, dose: 0.44 mg/kg/injection, schedule: Q01DX009 (ip), vehicle: saline 103 % of control | endpoint: median survival time, dose: 0.67 mg/kg/injection, schedule: Q01DX009 (ip), vehicle: saline 114 % of control | endpoint: median survival time, dose: 2.25 mg/kg/injection, schedule: Q01DX009 (ip), vehicle: saline 120 % of control | endpoint: median survival time, dose: 3.76 mg/kg/injection, schedule: Q01DX009 (ip), vehicle: saline 92 % of control

CN(C)N=Nc1ccc(Cl)cc1
inactive: endpoint: mean survival time, dose: 10.0 mg/kg/injection, schedule: Q01DX007 (ip), vehicle: DMSO 90 % of control | [1] 91 % of control | [2] 108 % of control | [3] 87 % of control | endpoint: mean survival time, dose: 120.0 mg/kg/injection, schedule: Q01DX007 (ip), vehicle: DMSO 91 % of control

Nc1nc(F)nc2c1ncn2C1OC(COP(=O)(O)O)C(O)C1O (stereo not drawn)
inactive: endpoint: median survival time, dose: 60.0 mg/kg/injection, schedule: Q01DX009 (ip), vehicle: saline 109 % of control | endpoint: median survival time, dose: 90.0 mg/kg/injection, schedule: Q01DX009 (ip), vehicle: saline 106 % of control | endpoint: median survival time, dose: 200.0 mg/kg/injection, schedule: Q01DX009 (ip), vehicle: saline 116 % of control

COC(COC(=O)N1CCN(C=O)CC1)C1=C(N2CC2)C(=O)C(C)=C(N2CC2)C1=O (stereo not drawn)
inactive: endpoint: median survival time, dose: 0.75 mg/kg/injection, schedule: Q01DX009 (ip), vehicle: saline 115 % of control | endpoint: median survival time, dose: 1.5 mg/kg/injection, schedule: Q01DX009 (ip), vehicle: saline 105 % of control
active: endpoint: median survival time, dose: 6.0 mg/kg/injection, schedule: Q01DX009 (ip), vehicle: saline 160 % of control

c1ccc([C@H]2CN3CCSC3=N2)cc1
inactive: endpoint: median survival time, dose: 5.0 mg/kg/injection, schedule: Q01DX009 (ip), vehicle: saline 100 % of control and 101 % of control and 103 % of control | endpoint: median survival time, dose: 10.0 mg/kg/injection, schedule: Q01DX005 (ip), vehicle: saline 101 % of control | endpoint: median survival time, dose: 10.0 mg/kg/injection, schedule: Q01DX009 (ip), vehicle: saline 124 % of control and 100 % of control and 102 % of control | endpoint: median survival time, dose: 20.0 mg/kg/injection, schedule: Q01DX005 (ip), vehicle: saline 98 % of control and 116 % of control | endpoint: median survival time, dose: 20.0 mg/kg/injection, schedule: Q01DX009 (ip), vehicle: saline 97 % of control (2×) and 104 % of control | endpoint: median survival time, dose: 40.0 mg/kg/injection, schedule: Q01DX005 (ip), vehicle: saline 98 % of control and 113 % of control

CN=NNc1nc[nH]c1C(N)=O
inactive: [4] 107 % of control | [5] 101 % of control | [6] 112 % of control | [7] 107 % of control | endpoint: median survival time, dose: 256.0 mg/kg/injection, schedule: Q01DX005 (ip), vehicle: saline with Tween-80 86 % of control

CN(C)N=Nc1ccc([N+](=O)[O-])cc1C(N)=O
inactive: [5] 100 % of control | [6] 98 % of control | [7] 121 % of control

C[C@@H]1C[C@@H]([C@H](O)CC2CC(=O)NC(=O)C2)C(=O)[C@@H](C)C1
inactive: endpoint: mean survival time, dose: 10.0 mg/kg/injection, schedule: Q01DX009 (ip), vehicle: saline 114 % of control | endpoint: mean survival time, dose: 20.0 mg/kg/injection, schedule: Q01DX009 (ip), vehicle: saline 101 % of control | endpoint: mean survival time, dose: 40.0 mg/kg/injection, schedule: Q01DX009 (ip), vehicle: saline 114 % of control | endpoint: mean survival time, dose: 80.0 mg/kg/injection, schedule: Q01DX009 (ip), vehicle: saline 106 % of control

CCC1=C(c2ccc(OC)cc2)CCC(C(=O)O)C1C (stereo not drawn)
inactive: endpoint: median survival time, dose: 4.0 mg/kg/injection, schedule: Q01DX005 (ip), vehicle: saline 103 % of control | endpoint: median survival time, dose: 4.0 mg/kg/injection, schedule: Q01DX005 (ip), vehicle: suspension in saline 102 % of control | endpoint: median survival time, dose: 8.0 mg/kg/injection, schedule: Q01DX005 (ip), vehicle: saline 114 % of control | endpoint: median survival time, dose: 8.0 mg/kg/injection, schedule: Q01DX005 (ip), vehicle: suspension in saline 102 % of control | endpoint: median survival time, dose: 16.0 mg/kg/injection, schedule: Q01DX005 (ip), vehicle: saline 112 % of control | endpoint: median survival time, dose: 16.0 mg/kg/injection, schedule: Q01DX005 (ip), vehicle: suspension in saline 96 % of control | [8] 102 % of control | endpoint: median survival time, dose: 32.0 mg/kg/injection, schedule: Q01DX005 (ip), vehicle: suspension in saline 104 % of control

O=[N+]([O-])O.[Ga]
inactive: [8] 101 % of control | endpoint: median survival time, dose: 64.0 mg/kg/injection, schedule: Q01DX005 (ip), vehicle: saline 103 % of control and 107 % of control | endpoint: median survival time, dose: 128.0 mg/kg/injection, schedule: Q01DX005 (ip), vehicle: saline 102 % of control

CN(C)/N=N/c1nc[nH]c1C(N)=O
inactive: [1] 100 % of control | endpoint: mean survival time, dose: 20.0 mg/kg/injection, schedule: Q01DX007 (ip), vehicle: other 106 % of control | endpoint: mean survival time, dose: 25.0 mg/kg/injection, schedule: Q01DX009 (ip), vehicle: saline 113 % of control | [2] 103 % of control | endpoint: mean survival time, dose: 40.0 mg/kg/injection, schedule: Q01DX007 (ip), vehicle: other 106 % of control | endpoint: mean survival time, dose: 50.0 mg/kg/injection, schedule: Q01DX009 (ip), vehicle: saline 111 % of control | [3] 116 % of control | endpoint: mean survival time, dose: 80.0 mg/kg/injection, schedule: Q01DX007 (ip), vehicle: other 107 % of control | endpoint: mean survival time, dose: 100.0 mg/kg/injection, schedule: Q01DX009 (ip), vehicle: saline 111 % of control | endpoint: mean survival time, dose: 160.0 mg/kg/injection, schedule: Q01DX007 (ip), vehicle: DMSO 121 % of control | endpoint: mean survival time, dose: 160.0 mg/kg/injection, schedule: Q01DX007 (ip), vehicle: other 121 % of control | endpoint: mean survival time, dose: 320.0 mg/kg/injection, schedule: Q01DX007 (ip), vehicle: DMSO 103 % of control | endpoint: mean survival time, dose: 320.0 mg/kg/injection, schedule: Q01DX007 (ip), vehicle: other 112 % of control | [4] 104 % of control | [5] 120 % of control | [6] 110 % of control | [7] 113 % of control
